This passage reports IC50 results from PMC11375437, “Selective labelling of GBA2 in cells with fluorescent β-D-arabinofuranosyl cyclitol aziridines” (Chemical Science, 2024).

Values joined by “and” are separate entries in the source; they are usually repeats but may differ in a detail not shown here. Identical values can stand only once. Like-named read-outs stand apart in the source and are kept apart here.

This experiment addresses T1, rhGBA1 (imiglucerase) (Homo sapiens, UniProt P04062, R534H).
T1 construct: purchased Sanofi Genzyme (gift) Cerezyme®
T1 sequence (P04062 40-536 R534H): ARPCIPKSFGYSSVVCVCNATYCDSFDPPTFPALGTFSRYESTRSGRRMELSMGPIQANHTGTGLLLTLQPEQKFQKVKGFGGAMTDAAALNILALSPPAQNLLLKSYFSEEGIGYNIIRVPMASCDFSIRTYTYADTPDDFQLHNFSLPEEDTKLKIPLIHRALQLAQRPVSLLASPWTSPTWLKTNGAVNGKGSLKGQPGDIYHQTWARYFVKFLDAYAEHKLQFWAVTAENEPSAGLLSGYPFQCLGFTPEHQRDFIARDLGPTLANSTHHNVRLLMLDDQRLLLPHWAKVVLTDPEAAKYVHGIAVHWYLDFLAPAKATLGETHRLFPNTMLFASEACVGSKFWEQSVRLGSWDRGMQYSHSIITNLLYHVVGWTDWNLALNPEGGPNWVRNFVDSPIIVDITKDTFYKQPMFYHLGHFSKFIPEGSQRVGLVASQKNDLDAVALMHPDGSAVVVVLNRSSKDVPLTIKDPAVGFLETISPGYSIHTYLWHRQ
Nature of the experiment: 4MU fluorogenic substrate assay for apparent IC50, rhGBA1. It counts as biochemical. As to conditions: 30 min pre-incubation, 4MU-β-D-Glc. The text has this:
To identify an ABP that selectively labels human GBA2 over GBA1 and GBA3, a library of cyclophellitol-based ABPs with varying configurations (ESI Fig. S1 ^†) was screened for their selectivity towards human retaining β-glucosidases. For this purpose, we initially assessed the inhibition properties of the compounds using recombinant human GBA1 (rhGBA1, imiglucerase), lysates of cells overexpressing GBA2 or GBA3 (both in combination with knockout of the other retaining β-glucosidases). In a preliminary screen, enzymes were pre-incubated for 30 min with the tested compounds, followed by the addition of the fluorogenic substrate, 4MU-β-D-Glc, and subsequent quantification of released fluorescent 4MU after 30 minutes. This screening brought our attention to a new set of β-D-Araf cyclitol aziridines as potential GBA2 inhibitors. […] On the other hand, the biotin-tagged β-D-Araf compound 6 is a poor inhibitor of all three glucosidases (apparent IC50 > 8 μM). Arabinofuranosyl cyclitol 12–20 with various configurations (α-L-Araf and β-L-Araf) were also evaluated (ESI Fig. S1 ^†).
Recombinant human GBA1 (rhGBA1, Imiglucerase) was kindly provided by Sanofi Genzyme (Cambridge, MA, USA). 4-Methylumbelliferyl-β-D-glucopyranoside substrates were purchase from Glycosynth (Warrington Cheshire, UK). Protein concentration was measured using the Pierce BCA assay kit (Thermo Fisher Scientific, Waltham, MA, USA). Harvested cells (cell pellets), cell lysates and tissue homogenates not used directly were stored at -80 °C. […]
2.5 4MU fluorogenic substrate assay for apparent IC50 determination
4MU fluorogenic substrate assays (using recombination human rhGBA1 or lysates of HEK293T cells) were conducted in 96-well plates at 37 °C. Samples were diluted with McIlvaine buffer (150 mM citric acid-Na2HPO4) to a final volume of 25 μL, at the appropriate pH for each enzyme. Assays were performed by incubating the samples with 100 μL 4-methylumbelliferyl-β-D-glucopyranoside substrate diluted in McIlvaine buffer for a period of 30 min. Enzyme activities and apparent IC50 values were determined by subtraction of the background (measured for incubations without enzyme) as previously described.4 The substrate mixtures used for each enzyme were as follows:
GBA1: 3.75 mM 4-MU-β-D-glucopyranoside in McIlvaine buffer (150 mM, pH 5.2, supplemented with 0.2% (w/v) sodium taurocholate, 0.1% (v/v) Triton X-100, 0.1% (w/v) bovine serum albumin (BSA)); GBA2: 3.75 mM 4 MU-β-D-glucopyranoside in McIlvaine buffer (150 mM, pH 5.8); GBA3: 3.75 mM 4-MU-β-D-glucopyranoside in McIlvaine buffer (150 mM, pH 6.0). To determine apparent IC50: For GBA1, 3.16 ng (53 fmol) of rhGBA1 (recombinant human GBA1, Imiglucerase) was prepared in 12.5 μL McIlvaine buffer (150 mM, pH 5.2, supplemented with 0.1% (v/v) Triton X-100, 0.2% (w/v) sodium taurocholate, and 0.1% (w/v) bovine serum albumin (BSA)). The enzyme was incubated with 12.5 μL […]
of inhibitors diluted in McIlvaine buffer (150 mM, pH 5.2) at 37 °C for 30 min or 3 h. For GBA2, lysates of GBA1/GBA2 KO HEK293T cells with GBA2 overexpression were prepared in 12.5 μL McIlvaine buffer (150 mM, pH 5.8), and incubated with 12.5 μL of inhibitors diluted in McIlvaine buffer (150 mM, pH 5.8) at 37 °C for 30 min or 3 h. For GBA3, lysates of GBA1/GBA2 KO HEK293T cells with GBA3 overexpression were prepared in 12.5 μL McIlvaine buffer (150 mM, pH 6.0), and incubated with 12.5 μL of inhibitors diluted in McIlvaine buffer (150 mM, pH 6.0) at 37 °C for 30 min or 3 h. Subsequently, the samples were incubated with 100 μL 4-methylumbelliferyl-β-D-glucopyranoside substrates dissolved in McIlvaine buffer described above for a period of 30 min. After stopping the enzyme reaction with 200 μL 1 M NaOH-glycine (pH 10.3), 4-methylumbelliferone fluorescence was measured with a fluorimeter LS55 (Perkin Elmer, Waltham, MA, USA) with λEX 366 nm and λEM 445 nm. The IC50 value was calculated using Graphpad Prism 9.0 with the Nonlinear regression (curve fit) - […]

[1] abbreviates: imiglucerase (Cerezyme), pH 5.2, n = 3 for β-D-Araf, n = 1 for α-L-Araf and β-L-Araf, read-out: Apparent IC50 rhGBA1.

Usually IC50 stands for the concentration that inhibits the measured activity by half. For the molecule `CC1=CC(C)=[N+]2C1=C(CCCCc1cn(CCCCCCCCN3[C@@H]4[C@H](CO)[C@@H](O)[C@H](O)[C@@H]43)nn1)c1c(C)cc(C)n1[B-]2(F)F` (some centres unmarked) [ABP 3], under setting [1], the IC50 is 4.29 ± 0.157 µM.

In the case of `COc1ccc(C2=[N+]3C(=C(CCCCc4cn(CCCCCCCCN5[C@@H]6[C@H](CO)[C@@H](O)[C@H](O)[C@@H]65)nn4)c4ccc(-c5ccc(OC)cc5)n4[B-]3(F)F)C=C2)cc1` (some centres unmarked) [ABP 4], the IC50 under setting [1] was 1.78 ± 0.071 µM. In the case of `CN1/C(=C/C=C/C=C/C2=[N+](CCCCCC(=O)NCc3cn(CCCCCCCCN4[C@@H]5[C@H](CO)[C@@H](O)[C@H](O)[C@@H]54)nn3)c3ccccc3C2(C)C)C(C)(C)c2ccccc21` (some centres unmarked) [ABP 5], the IC50 under setting [1] is 0.25 to 0.3 µM and 0.295 µM. For `O=C(CCCC[C@@H]1SC[C@@H]2NC(=O)N[C@@H]21)NCc1cn(CCCCCCCCN2[C@@H]3[C@H](CO)[C@@H](O)[C@H](O)[C@@H]32)nn1` (some centres unmarked) [ABP 6], the IC50 is, setting by setting: (read-out: Apparent IC50 GBA1) greater than 8 µM; under setting [1], 10.7 ± 0.786 µM. With `OC[C@@H]1[C@@H](O)[C@H](O)[C@@H]2N[C@H]12` [Compound 1, β-D-Arabinofuranosyl cyclitol aziridine], the IC50 reads like this: (read-out: Apparent IC50 GBA1) greater than 50 µM; under setting [1], greater than 50 µM.

Consider `[N-]=[N+]=NCCCCCCCCN1[C@@H]2[C@H](CO)[C@@H](O)[C@H](O)[C@@H]21` (stereo partly drawn) [Compound 2, β-D-arabinofuranosyl cyclitol aziridine-azidooctyl], for which, under setting [1], the IC50 is 2.73 µM.
